Measured values as given in patent US6602525B1 (The Procter & Gamble Company, priority 2001, dated 2003).
Where “and” joins values, the source holds several entries; their conditions need not be identical. Equal entries are not always repeated.

Key:
Type in all cases: cell-based
[1] = tested on: Enterococcus faecalis; experiment: Checkerboard synergy test, nitrofurantoin and uva ursi; conditions: E. faecalis isolates 21-30
Description: (§1) The checkerboard (or chessboard) method is used to assess the antimicrobial combination in vitro against the following selection of Gram-positive and Gram-negative pathogens including: Escherichia coli, Klebsiella pneumoniae, Proteus mirabilis, Serratia marcescens, Staphylococcus saprophyticus, Pseudomonas aeruginosa, and Enterococcus faecalis. […] Furthermore, the combination of nitrofurantoin and uva ursi is synergistic against four of the seven species tested, in particular E. coli, S. marcescens, P. mirabilis, and P. aeruginosa. […] [table] […] Following testing, the FIC index was calculated for each isolate panel to determine whether synergy, additivity, or antagonism occurred. […] For additivity, the FIC index is 1. For antagonism, the FIC index is 2.

[2] = tested on: Pseudomonas aeruginosa; experiment: as above; conditions: P. aeruginosa isolates 1-10
Description: as §1

[3] = tested on: Staphylococcus saprophyticus; experiment: as above; conditions: nitrofurantoin alone, S. saprophyticus isolates 61-70
Description: as §1

[4] = tested on: Proteus mirabilis; experiment: as above; conditions: nitrofurantoin alone, P. mirabilis isolates 41-50
Description: as §1

[5] = tested on: Enterococcus faecalis; experiment: Pre-test MIC, NCCLS microbroth dilution; conditions: nitrofurantoin alone, E. faecalis, one value per isolate (Isolate ID 21-30)
Description: (§2) Methods for Dilution Antimicrobial Susceptibility Tests for Bacteria That Grow Aerobically; Approved Standard (Fifth Edition) (2000). These standards are as follows: [table] Nitrofurantoin was added to cation-adjusted Mueller-Hinton Broth (hereinafter “CAMHB”) and dissolved. […] The uva ursi extract was serially diluted in water. For each test concentration, the final dilution was performed in CAMHB providing dilutions of 1:20 to 1:2048.

[6] = tested on: Pseudomonas aeruginosa; experiment: Pre-test MIC, NCCLS microbroth dilution
Description: as §2

[7] = tested on: Serratia marcescens; experiment: Pre-test MIC, NCCLS microbroth dilution; conditions: nitrofurantoin alone, S. marcescens, one value per isolate (Isolate ID 11-20)
Description: as §2

[8] = tested on: Staphylococcus saprophyticus; experiment: Pre-test MIC, NCCLS microbroth dilution; conditions: nitrofurantoin alone, S. saprophyticus, one value per isolate (Isolate ID 61-70)
Description: as §2

[9] = checkerboard, nitrofurantoin alone

MIC ([1]; Enterococcus faecalis, read-out: MIC Nitrofurantoin, checkerboard, nitrofurantoin alone): 16 µg/mL
MIC Nitrofurantoin [1, 9]: 8 µg/mL
MIC ([2]; Pseudomonas aeruginosa, read-out: MIC Nitrofurantoin, checkerboard, nitrofurantoin alone): > 512 µg/mL
MIC Nitrofurantoin [2, 9]: >512 µg/mL and 512 µg/mL
MIC Nitrofurantoin [3]: 8 µg/mL
MIC Nitrofurantoin [4]: 128 µg/mL
MIC Nitrofurantoin [5]: 8 to 64 µg/mL
MIC ([6]; Pseudomonas aeruginosa, read-out: Nitrofurantoin MIC): > 512 µg/mL
Nitrofurantoin MIC ([6]; pre-test, nitrofurantoin alone, P. aeruginosa, one value per isolate (Isolate ID 1-10)): >512 µg/mL
MIC Nitrofurantoin [7]: 64 to 512 µg/mL
MIC Nitrofurantoin [8]: 8 to 32 µg/mL
Structure (SMILES): O=C1CN(/N=C/c2ccc([N+](=O)[O-])o2)C(=O)N1 [Nitrofurantoin, N-(5-nitro-2-furfurylidene)-1-aminohydantoin]
